According to patent US10710996B2, “Pyrido-azaheterecydic compound and preparation method and use thereof” (SHANGHAI INSTITUTE OF MATERIA MEDICA, CHINESE ACADEMY OF …, priority 2015, dated 2020):

Tests used:
[1] = molecular target: T1, c-Met kinase (Homo sapiens, UniProt P08581); test: Inhibitory effect on c-Met kinase activity at molecular level (ELISA); assay type: biochemical;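 also: recombinant c-Met kinase domain with 5 µM ATP, 1 h at 37 °C, substrate phosphorylation detected by anti-phosphotyrosine PY99 ELISA at 490 nm versus DMSO negative control, ATP-free wells as blank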
T1 construct: c-Met kinase domain recombinant protein diluted with 49 μL of the reaction buffer was added
T1 sequence (P08581 1078-1345 limits assumed): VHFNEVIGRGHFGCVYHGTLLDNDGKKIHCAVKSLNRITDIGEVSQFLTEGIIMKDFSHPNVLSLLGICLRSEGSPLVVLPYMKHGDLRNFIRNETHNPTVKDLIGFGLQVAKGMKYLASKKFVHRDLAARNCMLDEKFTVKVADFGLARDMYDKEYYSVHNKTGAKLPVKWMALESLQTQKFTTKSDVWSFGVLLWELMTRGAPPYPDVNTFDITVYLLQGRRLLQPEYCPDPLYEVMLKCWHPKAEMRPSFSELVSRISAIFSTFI
Method: Experiment for Preliminarily Evaluating the Inhibitory Effect on the Activity of Receptor Tyrosine Kinase c-Met at Molecular Level
After discarding the liquid in the wells, the plate was washed with T-PBS (0.1% Tween-20 in PBS) in an amount of 200 μL/well three times, each for 5 minutes. The ELISA plate was dried in an oven at 37° C. for 1-2 hours. 50 μl of adenosine triphosphate (ATP) solution diluted with reaction buffer (50 mM 4-hydroxyethylpiperazine ethanesulfonic acid (HEPES) pH 7.4, 50 mM MgCl2, 0.5 mM MnCl2, 0.2 mM Na3VO4, 1 mM dithiothreitol (DTT)) to a final concentration of 5 μM was added to each well. The compounds were diluted to an appropriate concentration with DMSO (1 μL/well) or a solution containing DMSO in a corresponding concentration (negative control well), and then c-Met kinase domain recombinant protein diluted with 49 μL of the reaction buffer was added therein to initiate the reaction, with two ATP-free control wells for each test. The plate was placed in a shaker (100 rpm) at 37° C. for reacting 1 hour, and washed with T-PBS three times. Primary antibody PY99 diluent was added in an amount of 100 μL/well to allow the reaction in a shaker at 37° C. for 0.5 hour, and then the plate was washed with T-PBS three times. Then the secondary antibody horseradish peroxidase labeled goat anti-mouse IgG diluent was added in an amount of 100 μL/well, and the plate was placed in a shaker at 37° C. for reacting 0.5 hour, and then washed with T-PBS three times. 2 mg/ml of o-phenylenediamine (OPD) coloring solution (diluted with 0.1 M citric acid-sodium citrate buffer (pH=5.4) containing 0.03% H2O2) was then added at 100 μL/well and reacted at 25° C. for 1-10 min with light blocked (ultrasound was required to dissolve OPD, the coloring solution was prepared when needed). The reaction was stopped by adding 2 M of H2SO4 in an amount of 50 μL/well, and a wavelength-adjustable microplate reader SPECTRA MAX 190 was read at 490 nm.
The inhibition rate of the sample was calculated by the following equation:

[2] = test system: EBC-1 cells; test: Inhibition of c-Met-mediated EBC-1 cell proliferation (SRB staining); assay type: cell-based; details: Homo sapiens, 72 hours treatment
Method: The inhibitory effect of the compounds on the growth of non-small cell cancer EBC-1 cell (a cell line in which Met is continually activated due to the amplification of MET gene, and is a Met-dependent tumor cell line) was measured by sulforhodamine B (SRB) staining assay. A certain amount of EBC-1 cells in their logarithmic growth phase were seeded in 96-well plates at 90 μL per well and cultured overnight, then 10 μL of different concentrations of compounds or solvent control were added thereto, three wells for each concentration. After treated by the compound for 72 hours, the adherent cells were removed of culture medium and fixed with 10% (w/v) trichloroacetic acid (100 μL/well) at 4° C. for 1 hr followed by rinsing with distilled water five times. After drying at room temperature, 100 μL of SRB solution (dissolved in 1% glacial acetic acid at 4 mg/mL) was added to each well to incubate and stain the cells for 15 min at room temperature, then unbound SRB was washed off with 1% glacial acetic acid for five times. After drying at room temperature, 100 μL of 10 mM Tris solution was added to each well. The optical density (OD value) at 515 nm was read on a VERSMax microplate reader. […] The experiment was repeated twice. The IC50 data was calculated as a range based on the test results of concentrations set in the initial screening test.

Structure (SMILES)	IC50 [1] [nM]	IC50 [2] [nM]
O=C(Nc1ccc(Oc2ccnc3cc(OCCN4CCOCC4)ncc23)c(F)c1)c1cccn(-c2ccc(F)cc2)c1=O [Compound 15S, N-(3-fluoro-4-((7-(2-morpholinoethoxy)-1,6-naphthyridin-4-yl)oxy)phenyl)-1-(4-fluorophenyl)-2-oxo-1,2-dihydropyridine-3-carboxamide]	1 to 10	10 to 100
COc1cc(NC(=O)C2(C(=O)Nc3ccc(Oc4ccnc5cc(OCCN6CCOCC6)ncc45)c(F)c3)CC2)ccc1F [Compound 24S, N-(4-fluoro-3-methoxyphenyl)-N-(3-fluoro-4-((7-(2-morpholinoethoxy)-1,6-naphthyridin-4-yl)oxy)phenyl) cyclopropyl-1,1-dicarboxamide]	1 to 10	100 to 1000
CC(C)N1CCC(n2cc(-c3cc4nccc(Oc5ccc(NC(=O)C6(C(=O)Nc7ccc(F)cc7)CC6)cc5F)c4cn3)cn2)CC1 [Compound 43S, N-(3-fluoro-4-((7-(1-(1-isopropylpiperidin-4-yl)-1H-pyrazol-4-yl)-1,6-naphthyridin-4-yl)oxy)phenyl)-N-(4-fluorophenyl)cyclopropyl-1,1-dicarboxamide]	1 to 10	100 to 1000
O=C(Nc1ccc(F)cc1)C1(C(=O)Nc2ccc(Oc3ccnc4cc(-c5cnn(C6CCNCC6)c5)ncc34)c(F)c2)CC1 [Compound 42S, N-(3-fluoro-4-((7-(1-(piperidin-4-yl)-1H-pyrazol-4-yl)-1,6-naphthyridin-4-yl)oxy)phenyl)-N-(4-fluorophenyl) cyclopropyl-1,1-dicarboxamide]	1 to 10	1 to 10
O=C(Nc1ccc(F)cc1)C1(C(=O)Nc2ccc(Oc3ccnc4cc(OCCc5ccncc5)ncc34)c(F)c2)CC1 [Compound 25S, N-(3-fluoro-4-((7-(2-(pyridin-4-yl)ethoxy)-1,6-naphthyridin-4-yl)oxy)phenyl)-N-(4-fluorophenyl)cyclopropyl-1,1-dicarboxamide]	1 to 10	100 to 1000
CN1CCN(CCOc2cc3nccc(Oc4ccc(NC(=O)C5(C(=O)Nc6ccc(F)cc6)CC5)cc4F)c3cn2)CC1 [Compound 11S, N-(3-fluoro-4-((7-(2-(4-methylpiperazin-1-yl)ethoxy)-1,6-naphthyridin-4-yl)oxy)phenyl)-N-(4-fluorophenyl) cyclopropyl-1,1-dicarboxamide]	1 to 10	100 to 1000

Further lines, with some results ahead:

IC50 [1] [nM]	Structure (SMILES)	IC50 [2] [nM]
1 to 10	O=C(Nc1ccc(F)cc1)C1(C(=O)Nc2ccc(Oc3ccnc4nc(N5CCNCC5)cnc34)c(F)c2)CC1 [Compound 64S, N-(4-((3-piperazinyl-pyrido[2,3-b]pyrazin-8-yl)oxy)-3-fluorophenyl)-N-(4-fluorophenyl)cyclopropyl-1,1-dicarboxamide]	1000 to 10000
100 to 1000	Cc1noc(C)c1-c1cc2nccc(Oc3ccc(NC(=O)C4(C(=O)Nc5ccc(F)cc5)CC4)cc3F)c2cn1 [Compound 45S, N-(4-((7-(3,5-dimethylisoxazol-4-yl)-1,6-naphthyridin-4-yl)oxy)-3-fluorophenyl)-N-(4-fluorophenyl) cyclopropyl-1,1-dicarboxamide]	1000 to 10000
10 to 100	O=C(Nc1ccc(F)cc1)C1(C(=O)Nc2ccc(Oc3ccnc4cc(Cn5ccnc5)ncc34)c(F)c2)CC1 [Compound 44S, N-(4-((7-((1H-imidazol-1-yl)methyl)-1,6-naphthyridin-4-yl)oxy)-3-fluorophenyl)-N-(4-fluorophenyl)cyclopropyl-1,1-dicarboxamide]	100 to 1000
1000 to 10000	O=C(Nc1ccc(F)cc1)C1(C(=O)Nc2ccc(Oc3ccnc4ncc(OCCCN5CCOCC5)nc34)c(F)c2)CC1 [Compound 68S, N-(3-fluoro-4-((2-(3-morpholinopropoxy)pyrido[2,3-b]pyrazin-8-yl)oxy)phenyl)-N-(4-fluorophenyl)cyclopropyl-1,1-dicarboxamide]	1000 to 10000
